{"source": "paper PMC6778101", "about": "(Nature Communications, 2019)", "key": {"S. enterica LT2": {"test_system": "S. enterica LT2", "assay": "Laboratory evolution of resistance, MIC fold change of adapted lines", "type": "cell-based, Salmonella enterica subsp. enterica serovar Typhimurium", "settings": "Salmonella enterica serovar Typhimurium LT2; parallel line 1 of 10", "text": "The tested pathogens initially sensitive to the AMPs and the antibiotics included Escherichia coli (ATCC® 25922™) (abbreviated as E. coli ATCC 25922), Salmonella enterica subsp. enterica serovar Typhimurium LT2 (abbreviated as S. enterica LT2), Klebsiella pneumoniae subsp. pneumoniae (Schroeter) Trevisan (ATCC® 10031™) (abbreviated as K. pneumoniae ATCC 10031) and Acinetobacter baumannii Bouvet and Grimont (ATCC® 17978™) (abbreviated as A. baumannii ATCC 17978).\nThe evolutionary protocol was designed to avoid population extinction and to ensure that populations with the highest level of resistance were propagated further. Starting with a subinhibitory drug concentration (Supplementary Data 8), resulting in ~50% growth inhibition, 10 parallel populations per drug were allowed to grow in Minimal Salts medium for 72 h and 300 r.p.m. […] Prior to each transfer, cell growth was monitored by measuring the optical density at 600 nm (OD600 value, Biotek Synergy 2 microplate reader). […]\nMICs were determined using a standard serial broth dilution technique. […] Cell growth was monitored by measuring the optical density (OD600 value, Biotek Synergy 2 microplate reader was used for this purpose). […] Relative MIC was calculated as follows: MICrelative = MICevolved/MICcontrol."}, "[1]": {"test_system": "E. coli K-12 BW25113 bearing the metagenomic plasmid library", "assay": "Functional metagenomic screen of a soil library, gradient plate selection", "type": "cell-based, Escherichia coli"}, "[2]": {"test_system": "Streptococcus pyogenes ATCC 19653", "type": "cell-based", "settings": "broth dilution, 37 °C, 18 h", "procedure": "(§1) Unless otherwise indicated, we used E. coli K-12 BW25113 in all high-throughput experiments. To investigate the impact of mutation rate on evolution of AMP resistance, we initiated laboratory evolution with a mutator strain E. coli mutD5 that carries mutations in the dnaQ gene (L73W and A164V).\n(§2) MICs were determined using a standard serial broth dilution technique. Briefly, 11-step serial dilutions were prepared in 96-well microtiter plates with three replicates per strain and antimicrobial compound. Each experiment was repeated at least twice. 5 × 10^5 cells/mL were inoculated into each well, and the plates were incubated at 30 °C in case of E. coli K-12 BW25113, and its antibiotic and AMP-adapted lines, or 37 °C in case of the other bacterial species. Plates were shaken at 300 r.p.m. during incubation for 24 and 18 h, respectively. Cell growth was monitored by measuring the optical density (OD600 value, Biotek Synergy 2 microplate reader was used for this purpose). […] Relative MIC was calculated as follows: MICrelative = MICevolved/MICcontrol."}, "[3]": {"test_system": "Klebsiella pneumoniae subsp. pneumoniae ATCC 700603", "type": "cell-based", "settings": "broth dilution, 37 °C, 18 h", "procedure": "as §1, §2"}, "[4]": {"test_system": "Shigella flexneri HNCMB 20018", "type": "cell-based", "settings": "broth dilution, 37 °C, 18 h", "procedure": "as §1, §2"}, "[5]": {"test_system": "Staphylococcus aureus subsp. aureus ATCC 25923", "type": "cell-based", "settings": "broth dilution, 37 °C, 18 h", "procedure": "as §1, §2"}, "[6]": {"test_system": "Escherichia coli ATCC BAA 2340", "type": "cell-based", "settings": "broth dilution, 37 °C, 18 h", "procedure": "as §1, §2"}, "[7]": {"test_system": "Escherichia coli ATCC 35218", "type": "cell-based", "settings": "broth dilution, 37 °C, 18 h", "procedure": "as §1, §2"}, "[8]": {"test_system": "Staphylococcus aureus subsp. aureus ATCC 29213", "type": "cell-based", "settings": "broth dilution, 37 °C, 18 h", "procedure": "as §1, §2"}, "[9]": {"test_system": "Enterococcus faecium ATCC 700221", "type": "cell-based", "settings": "broth dilution, 37 °C, 18 h", "procedure": "as §1, §2"}, "[10]": {"test_system": "Pseudomonas aeruginosa ATCC 27853", "type": "cell-based", "settings": "broth dilution, 37 °C, 18 h", "procedure": "as §1, §2"}, "[11]": {"test_system": "Escherichia coli ATCC BAA 2469", "type": "cell-based", "settings": "broth dilution, 37 °C, 18 h", "procedure": "as §1, §2"}, "[12]": {"test_system": "Methicillin-resistant Staphylococcus aureus subsp. aureus ATCC 43300", "type": "cell-based", "settings": "broth dilution, 37 °C, 18 h", "procedure": "as §1, §2"}, "[13]": {"test_system": "Enterobacter cloacae subsp. cloacae ATCC 13047", "type": "cell-based", "settings": "broth dilution, 37 °C, 18 h", "procedure": "as §1, §2"}, "[14]": {"test_system": "Escherichia coli NCTC 13351", "type": "cell-based", "settings": "broth dilution, 37 °C, 18 h", "procedure": "as §1, §2"}, "[15]": {"test_system": "Shigella sonnei HNCMB 25021", "type": "cell-based", "settings": "broth dilution, 37 °C, 18 h", "procedure": "as §1, §2"}, "[16]": {"test_system": "Klebsiella pneumoniae NCTC 13440", "type": "cell-based", "settings": "broth dilution, 37 °C, 18 h", "procedure": "as §1, §2"}, "E. coli ATCC 25922": {"test_system": "E. coli ATCC 25922", "type": "cell-based, Escherichia coli", "settings": "Escherichia coli ATCC 25922; broth dilution, 37 °C, 18 h", "procedure": "as §1, §2"}}, "note": "Ends that are not written are not given here. Peptide text beside a SMILES is read from it."}
{"compound": "CC[C@H](C)[C@@H]1NC(=O)CNC(=O)[C@H](CCCNC(=N)N)NC(=O)[C@H](Cc2ccc(O)cc2)NC(=O)[C@@H]2CSSC[C@H](NC1=O)C(=O)N[C@@H](Cc1ccc(O)cc1)C(=O)N[C@@H](CCCNC(=N)N)C(=O)N[C@@H](CCCCN)C(=O)N[C@H](C(=O)N[C@@H](CCCNC(=N)N)C(N)=O)CSSC[C@H](NC(=O)[C@H](Cc1c[nH]c3ccccc13)NC(=O)[C@@H](N)CCCNC(=N)N)C(=O)N[C@@H](Cc1ccccc1)C(=O)N[C@@H](CCCNC(=N)N)C(=O)N[C@@H](C(C)C)C(=O)N2", "note": "[TPII, tachyplesin II] (HELM PEPTIDE1{R.W.C.F.R.V.C.Y.R.G.I.C.Y.R.K.C.R.[am]}$PEPTIDE1,PEPTIDE1,3:R3-16:R3|PEPTIDE1,PEPTIDE1,7:R3-12:R3$$$V2.0; N-terminus and C-terminus assumed; bridges inferred)", "values": [{"measurement": "MIC fold change following 20 transfers", "setting": "S. enterica LT2", "value": 1.0, "unit": "fold"}, {"measurement": "resistant clones / resistance-conferring DNA segments from the soil metagenomic library (in words)", "setting": "[1]", "value": "failed to find DNA segments that would provide resistance"}, {"measurement": "Number of resistant contig", "setting": "[1]; soil metagenomic library, 1.5–5 kb fragments, gradient plate, 30 °C, 24 h", "value": 0}]}
{"compound": "SWLSKTAKKLENSAKKRISEGIAIAIQGGPR [CP1, Cecropin P1]", "values": [{"measurement": "MIC", "setting": "[2]", "value": "> 9.6", "unit": "µM"}, {"measurement": "MIC", "setting": "[3]", "value": 2.4, "unit": "µM"}, {"measurement": "MIC", "setting": "[4]", "value": 1.2, "unit": "µM"}, {"measurement": "MIC", "setting": "[5]", "value": "> 9.6", "unit": "µM"}, {"measurement": "MIC", "setting": "[6]", "value": 1.2, "unit": "µM"}, {"measurement": "MIC", "setting": "[7]", "value": 1.2, "unit": "µM"}, {"measurement": "MIC", "setting": "[8]", "value": "> 9.6", "unit": "µM"}, {"measurement": "MIC", "setting": "[9]", "value": "> 9.6", "unit": "µM"}, {"measurement": "MIC", "setting": "[10]", "value": 2.4, "unit": "µM"}, {"measurement": "MIC", "setting": "[11]", "value": 1.2, "unit": "µM"}, {"measurement": "MIC", "setting": "[12]", "value": "> 9.6", "unit": "µM"}, {"measurement": "MIC", "setting": "[13]", "value": "> 9.6", "unit": "µM"}, {"measurement": "MIC", "setting": "[14]", "value": "0.6 to 1.2", "unit": "µM"}, {"measurement": "MIC", "setting": "[15]", "value": "0.6 to 1.2", "unit": "µM"}, {"measurement": "MIC", "setting": "[16]", "value": 1.2, "unit": "µM"}, {"measurement": "MIC", "setting": "E. coli ATCC 25922", "value": 1.2, "unit": "µM"}]}
